Data as given in paper PMC9291665, “Discovery and SAR analysis of 5-chloro-4-((substituted phenyl)amino)pyrimidine bearing histone deacetylase inhibitors” (Journal of Enzyme Inhibition and Medicinal Chemistry, 2022).

Tests used:
[1] = system: Hela nucleus extract containing a mixture of HDAC isoforms; assay: HDAC enzyme inhibitory screening against Hela nucleus extract; format: biochemical; details: at concentration of 1.0 µM, mean of three experiments
Procedure: The synthesised molecules were firstly screened against Hela nucleus extract containing a mixture of HDAC isoforms.
All HDAC enzymes were purchased from BPS Bioscience. In short, 60 µL of recombinant HDAC enzyme solution was mixed with various concentrations of test compound (40 µL), and then incubated at 37 °C for 30 minutes. The reaction was terminated by adding 100 µL of imaging agent containing trypsin and trichostatin A (TSA). After standing for 20 min, the fluorescence intensity was measured at the excitation and emission wavelengths of 360 and 460 nm with a microplate reader. The inhibition rate was calculated from the fluorescence intensity readings of the test wells relative to the control wells, and the IC50 curve and value were determined by GraphPad Prism 6.0 software.

[2] = system: K562 cells; assay: In vitro antiproliferative assay (CCK-8), K562; format: cell-based; details: Homo sapiens, at concentration of 1.0 µM, mean of three experiments, read-out: K562 percentage inhibitory rate
Procedure: (§1) The proliferation of cancer cells was tested by CCK-8 assay. Briefly, cells were seeded in 96-well plate with about 5 × 10^3 cells in each well. The cells were treated with tested compounds after 24 h of incubation. CCK-8 reagent ([…]) was added to each well after 72 h of incubation, and cells were incubated at 37 °C for 4 h. The light absorbance at 450 nm was measured by using an Opsys microplate reader (Dynex Technologies, Chantilly, VA, USA).

[3] = system: H3122; set-up: method as in PMID 17185414, PMID 27144831; details: cited from earlier work
[4] = system: H2228; set-up: method as in PMID 17185414, PMID 27144831; details: cited from earlier work
[5] = system: MDA-MB-231; assay: In vitro antiproliferative assay (CCK-8), MDA-MB-231; format: cell-based; details: Homo sapiens, CCK-8, 72 h
Procedure: (§2) Compound L20 with good performances in both enzyme and K562 cell inhibitory tests were selected for further antiproliferative assay against various cell lines. K562, U266, U937, C6, Fadu, MDA-MB-231, MDA-MB-468, A549, A2780 and HepG2 cell lines were used in the cell-based anticancer evaluation of L20.
as §1, with “USA). Results are illustrated as percent of cell viability normalised to DMSO-treated control cells.” for “USA).”

[6] = system: MDA-MB-468; assay: In vitro antiproliferative assay (CCK-8), MDA-MB-468; format: cell-based; details: Homo sapiens, CCK-8, 72 h
Procedure: as §2
as §1, with “USA). Results are illustrated as percent of cell viability normalised to DMSO-treated control cells.” for “USA).”

[7] = system: K562 cells; assay: Cell apoptosis analysis by flow cytometry (Annexin V-BV421 / 7-AAD); details: 24 h, control 1.14%
Procedure: Cells were incubated with Annexin V-BV421 (Becton Dickinson, USA) and 7-AAD (Becton Dickinson, USA) double labelling for 30 min in the dark at room temperature and measured by flow cytometry (FACSAriaIII, Becton Dickinson, USA). The data was analysed using Flowjo-V10 software.

HDACs percentage inhibitory rate [1] [%]	Compound	inhibition at 1 µM [2] [%]	other results
48.33 ± 0.64	N#Cc1ccc(Nc2nc(N3CCN(c4ccc(C(=O)NO)cc4)CC3)ncc2Cl)cc1 [Compound L5, 4–(4-(5-chloro-4-((4-cyanophenyl)amino)pyrimidin-2-yl)piperazin-1-yl)-N-hydroxybenzamide]	31.51 ± 0.09	–
53.89 ± 3.35	O=C(NO)c1ccc(N2CCN(c3ncc(Cl)c(Nc4ccc(F)cc4)n3)CC2)cc1 [Compound L4, 4–(4-(5-chloro-4-((4-fluorophenyl)amino)pyrimidin-2-yl)piperazin-1-yl)-N-hydroxybenzamide]	58.2 ± 1.05	–
50.54 ± 2.27	O=C(NO)c1ccc(N2CCN(c3ncc(Cl)c(Nc4ccccc4)n3)CC2)cc1 [Compound L1, 4–(4-(5-chloro-4-(phenylamino)pyrimidin-2-yl)piperazin-1-yl)-N-hydroxybenzamide]	30.7 ± 0.32	–
54.51 ± 3.05	O=C(NO)c1ccc(N2CCN(c3ncc(Cl)c(Nc4ccc(I)cc4)n3)CC2)cc1 [Compound L17, 4-(4-(5-chloro-4-((4-iodophenyl)amino)pyrimidin-2-yl)piperazin-1-yl)-N-hydroxybenzamide]	56.4 ± 2.16	–
52.44 ± 1.44	O=C(NO)c1ccc(N2CCN(c3ncc(Cl)c(Nc4ccc(Cl)cc4)n3)CC2)cc1 [Compound L13, 4–(4-(5-chloro-4-((4-chlorophenyl)amino)pyrimidin-2-yl)piperazin-1-yl)-N-hydroxybenzamide]	54.1 ± 2.34	–
58.37 ± 1.55	COc1ccc(Nc2nc(N3CCN(c4ccc(C(=O)NO)cc4)CC3)ncc2Cl)cc1OC [Compound L7, 4–(4-(5-chloro-4-((3,4-dimethoxyphenyl)amino)pyrimidin-2-yl)piperazin-1-yl)-N-hydroxybenzamide]	63.9 ± 1.12	–
40.93 ± 0.50	O=C(NO)c1cnc(N2CCN(c3ncc(Cl)c(Nc4ccc(-c5ccccc5)cc4)n3)CC2)nc1 [Compound L22, 2–(4-(4-([1,1′-biphenyl]-4-ylamino)-5-chloropyrimidin-2-yl)piperazin-1-yl)-N-hydroxypyrimidine-5-carboxamide]	37.1 ± 2.11	–

More lines, now with the values behind:

Compound	HDACs percentage inhibitory rate [1] [%]	inhibition at 1 µM [2] [%]	other results
O=C(NO)c1ccc(N2CCN(c3ncc(Cl)c(Nc4cccc(Br)c4)n3)CC2)cc1 [Compound L10, 4–(4–(4-((3-bromophenyl)amino)-5-chloropyrimidin-2-yl)piperazin-1-yl)-N-hydroxybenzamide]	51.50 ± 2.03	31.6 ± 1.12	–
COc1cccc(Nc2nc(N3CCN(c4ccc(C(=O)NO)cc4)CC3)ncc2Cl)c1 [Compound L9, 4–(4-(5-chloro-4-((3-methoxyphenyl)amino)pyrimidin-2-yl)piperazin-1-yl)-N-hydroxybenzamide]	55.28 ± 0.15	50.8 ± 2.92	–
O=C(NO)c1ccc(N2CCN(c3ncc(Cl)c(Nc4ccc(Br)cc4)n3)CC2)cc1 [Compound L11, 4–(4–(4-((4-bromophenyl)amino)-5-chloropyrimidin-2-yl)piperazin-1-yl)-N-hydroxybenzamide]	59.82 ± 4.01	60.9 ± 0.21	–
Cc1cc(Nc2ncc(Cl)c(Nc3ccccc3S(=O)(=O)C(C)C)n2)c(OC(C)C)cc1C1CCNCC1 [Ceritinib]	–	–	GI50 [3]: 0.062 µM; GI50 [4]: 0.121 µM
COc1cc(Nc2nc(N3CCN(c4ccc(C(=O)NO)cc4)CC3)ncc2Cl)cc(OC)c1 [Compound L6, 4–(4-(5-chloro-4-((3,5-dimethoxyphenyl)amino)pyrimidin-2-yl)piperazin-1-yl)-N-hydroxybenzamide]	59.74 ± 0.03	56.6 ± 0.11	–
Cc1ccc(Nc2nc(N3CCN(c4ccc(C(=O)NO)cc4)CC3)ncc2Cl)cc1 [Compound L2, 4–(4-(5-chloro-4-(p-tolylamino)pyrimidin-2-yl)piperazin-1-yl)-N-hydroxybenzamide]	47.98 ± 1.54	43.9 ± 0.81	–
COc1ccc(Nc2nc(N3CCN(c4ncc(C(=O)NO)cn4)CC3)ncc2Cl)cc1OC [Compound L21, 2–(4-(5-chloro-4-((3,4-dimethoxyphenyl)amino)pyrimidin-2-yl)piperazin-1-yl)-N-hydroxypyrimidine-5-carboxamide]	58.95 ± 0.74	62.6 ± 2.45	–
CCc1ccc(Nc2nc(N3CCN(c4ccc(C(=O)NO)cc4)CC3)ncc2Cl)cc1 [Compound L3, 4–(4-(5-chloro-4-((4-ethylphenyl)amino)pyrimidin-2-yl)piperazin-1-yl)-N-hydroxybenzamide]	50.54 ± 0.21	19.5 ± 0.06	–
COc1cc(N2CCC(N3CCN(C)CC3)CC2)ccc1Nc1ncc(Cl)c(Nc2ccccc2P(C)(C)=O)n1 [Brigatinib]	–	–	GI50 [3]: 0.004 µM; GI50 [4]: 0.01 µM
O=C(CCCCCCC(=O)Nc1ccccc1)NO [SAHA, Vorinostat, reference compound]	–	–	IC50 [5]: 3.59 ± 0.24 µM; IC50 [6]: 4.85 ± 0.23 µM; apoptotic rate of K562 cells ([7]; 1 µM): 1.39%; apoptotic rate of K562 cells ([7]; 2 µM): 3.36%; apoptotic rate of K562 cells ([7]; 4 µM): 19.75%
COc1cc(Nc2nc(N3CCN(c4ccc(C(=O)NO)cc4)CC3)ncc2Cl)cc(OC)c1OC [Compound L15, 4–(4-(5-chloro-4-((3,4,5-trimethoxyphenyl)amino)pyrimidin-2-yl)piperazin-1-yl)-N-hydroxybenzamide]	58.15 ± 2.02	58.6 ± 2.01	–
O=C(NO)c1ccc(N2CCN(c3ncc(Cl)c(Nc4cccc(I)c4)n3)CC2)cc1 [Compound L16, 4-(4-(5-chloro-4-((3-iodophenyl)amino)pyrimidin-2-yl)piperazin-1-yl)-N-hydroxybenzamide]	46.50 ± 4.74	37.1 ± 1.54	–
CCOc1ccc(Nc2nc(N3CCN(c4ccc(C(=O)NO)cc4)CC3)ncc2Cl)cc1 [Compound L8, 4–(4-(5-chloro-4-((4-ethoxyphenyl)amino)pyrimidin-2-yl)piperazin-1-yl)-N-hydroxybenzamide]	49.32 ± 0.89	37.1 ± 1.54	–
O=C(NO)c1ccc(N2CCN(c3ncc(Cl)c(Nc4cccc(Cl)c4)n3)CC2)cc1 [Compound L12, 4–(4-(5-chloro-4-((3-chlorophenyl)amino)pyrimidin-2-yl)piperazin-1-yl)-N-hydroxybenzamide]	32.74 ± 0.38	50.6 ± 1.86	–
O=C(NO)c1ccc(N2CCN(c3ncc(Cl)c(Nc4ccc(-c5ccccc5)cc4)n3)CC2)cc1 [Compound L14, 4–(4–(4-([1,1′-biphenyl]-4-ylamino)-5-chloropyrimidin-2-yl)piperazin-1-yl)-N-hydroxybenzamide]	46.80 ± 1.07	35.2 ± 1.21	–
O=C(NO)c1ccc(N2CCN(c3ncc(Cl)c(Nc4ccc(F)c(Cl)c4)n3)CC2)cc1 [Compound L18, 4-(4-(5-chloro-4-((3-chloro-4-fluorophenyl)amino)pyrimidin-2-yl)piperazin-1-yl)-N-hydroxybenzamide]	52.92 ± 2.00	31.3 ± 0.92	–
CC(C)S(=O)(=O)c1ccccc1Nc1nc(N2CCN(c3ccc(C(=O)NO)cc3)CC2)ncc1Cl [Compound L19, 4-(4-(5-chloro-4-((2-(isopropylsulfonyl)phenyl)amino)pyrimidin-2-yl)piperazin-1-yl)-N-hydroxybenzamide]	44.91 ± 4.97	21.3 ± 0.65	–
